Experimental data published in patent US20240277767A1, “METHODS AND USES” (PROLEUKOCYTE AB, priority 2021, published 2024).
“Also recorded” adds a separate entry of the source.

System: NK cells
Test: [Cr51]-release assay: lysis of tumour target cells by pre-treated NK cells after H2O2 exposure
Format: cell-based, human
Source text: Peripheral blood samples (anonymized by-products of blood donations from healthy adult donors) were purchased from Karolinska University Hospital Blood Bank. Peripheral blood mononuclear cells (PBMC) were isolated from healthy donor buffy coats using density centrifugation with Ficoll® Paque Plus (GE Healthcare). NK cells and CD14^+ monocytes were isolated from PBMCs using NK cell isolation kit or CD14^+ microbeads, respectively (both Miltenyi Biotec), following the manufacturer's instructions. For NK cell expansion, a EBV-LCL feeder cell line was used, irradiated at 100 gy and then co-cultured with NK cells, at the ratio 10:1 LCL:NK, in X-Vivo 20 (Lonza) supplemented with 10% human AB serum and 1000 U/mL IL-2 (Proleukin). From day 6 or 10, NK cells were kept at 0.5×10^6 cells/mL or 1×10^6/mL, respectively. Purity of expanded NK cell was assessed at day 10 by flow cytometry, see below.
Lymphocytes were pre-treated for 18 h with Auranofin (AUF, with the concentration 1 μg/mL for NK cells and 0.5 μg/mL for TIL, if not indicated differently), DL-Sulforaphane (SUL) or Dimethyl Fumarate (DMF) (all Sigma-Aldrich) at indicated concentrations.
For Nrf2 inhibition, NK cells were treated with 50 μM ML-385 (Sigma-Aldrich) in parallel. For H2O2 treatment, lymphocyte cells were washed and resuspended to 1×10^6 cells/mL in medium and exposed to indicated H2O2 (Sigma-Aldrich) concentration for 1 h at 37° C. Cells were washed with medium and then used for further experiments. For monocyte experiments, autologous NK cell-monocytes or TIL-monocytes were used. NK cells/TIL were isolated and pre-treated with 0.5 μg/mL AUF, as described above, and co-cultured with unstimulated at the ratio, 1:2 M:NK, or stimulated monocytes at the ratio, 1:1 M:NK, if not indicated otherwise. Stimulated monocytes were activated with 100 ng/ml PMA for 1 min, washed and added at indicated ratio, the number of NK cell/TIL was kept constant. As control, H2O2 was used at indicated concentration. Cells were co-cultured for 2 h and then effector cells were stained for intracellular ROS (see flow cytometry) or used as effector cells in Cr^51 release assay (E:T ratio 10:1).
For cytotoxic assay, a standard 4 h [Cr^51]-release assay was used. Briefly, tumour cells were harvested and labeled with 51Cr (PerkinElmer) and used as target cells. Effector cells, NK cells and T cells, were co-cultured in 96-well V-bottom plate with indicated tumour cells at the stated effector target ratio (E:T). The supernatant was collected onto LUMA plates (Perkin-Elmer) and radioactivity/tumour cell lysis was detected by MicroBeta2 (Perkin Elmer). Target cell killing measured by % specific lysis and calculated using the formula: ((experimental release-spontaneous release)/(maximum release-spontaneous release))*100.
Lymphocytes were pre-treated for 18 h with Auranofin (AUF, with the concentration 1 μg/mL for NK cells and 0.5 μg/mL for TIL. As AUF was reconstituted in DMSO, control NK cells were pre-treated with DMSO with an equivalent volume to the highest compound concentration. For N-acetylcysteine (NAC, Invitrogen) treatment, DMSO pre-treated cells were incubated for 1 h with 5 or 10 mM NAC prior to H2O2 treatment. For H2O2 treatment, lymphocytes were washed and resuspended to 1×10^6 cells/mL in RPMI containing the indicated H2O2 (Sigma-Aldrich) concentration for 1 h at 37° C. 5% CO2. Cells were washed with medium and then used for further experiments.

With `CC(=O)OC[C@H]1O[C@@H]([S-])[C@H](OC(C)=O)[C@@H](OC(C)=O)[C@@H]1OC(C)=O.CCP(CC)CC.[Au+]` [AUF, Auranofin] the “Lysis of K562 target cells by pre-treated NK cells after H2O2 exposure” value (18 h pre-treatment, H2O2 1 h up to 250 μM, E:T 9:1, vs control NK cells) was “counteracted; also recorded: strong protective effect against ROS”, the “Effector functions of NK cells (K562 lysis) vs controls” value (72 h after AUF removal, E:T 3:1) was “no differences” and the “Killing of KASUMI-1 cells by pre-treated NK cells” value (AML cell line KASUMI-1, H2O2, E:T 9:1) was “significantly increased killing”. The “Killing of THP-1 cells by pre-treated NK cells” value (AML cell line THP-1, H2O2, E:T 9:1) was “significantly increased killing”, the “Time after start of pre-treatment with most pronounced protection of functional cytotoxicity capacity” value (NK cells, K562 lysis, H2O2, E:T 9:1) was “around 18 h” and the “Lysis of K562 by AUF pre-treated NK cells despite addition of ML385” value (compared to untreated controls) was “lysis was increased”. For the same compound, the “Suppressive effect of H2O2 on lymphocyte function (killing, degranulation, IFNγ)” value (expanded NK cells and patient derived TIL, pre-treatment) was “counteracts the suppressive effect of H2O2 on lymphocyte function”, the “Duration of improved NK cell and TIL tolerance towards oxidative stress” value (post pre-treatment) was “up to two to three days” and the “Dependence of the protective effect on Nrf2 activation” value (qPCR of Nrf2 target genes and K562 lysis with/without Nrf2 inhibitor ML385) was “dependent on Nrf2 activation”. The “Effector functions of NK cells (K562 lysis)” value (up to 48 h after AUF removal, E:T 3:1) was “significantly improved effector functions” and the “Effector function of NK cells and TIL after H2O2 treatment” value (up to 72 h after compound removal) was “increased effector function”.
